# According to US8933063B2, “Preparation of a crystalline antibiotic substance” (Leo Pharma A/S, priority 2005, dated 2015):
# Assay: Stability assay: six month storage stability of polymorphic forms of fusidic acid (HPLC)
# Assay type: physicochemical
# Details: for HPLC-assay (% of origin) / Impurities total (%): after 6 month storage at 40° C., solid crystal form
HPLC-assay (% of origin),Impurities total (%),HPLC-assay (% of origin) (hemihydrate),Impurities total (%) (hemihydrate),Relative stability among known forms of fusidic acid (comparative six month standard stability study),SMILES
98.2 % of origin,1.0,–,–,–,"CC(=O)O[C@H]1C[C@@]2(C)[C@@H](C[C@@H](O)[C@H]3[C@@]4(C)CC[C@@H](O)[C@@H](C)[C@@H]4CC[C@@]32C)/C1=C(\CCC=C(C)C)C(=O)O [Fusidic acid form I from ES 2208110, Fusidic acid]"
88.2 % of origin,5.2,–,–,–,"CC(=O)O[C@H]1C[C@@]2(C)[C@@H](C[C@@H](O)[C@H]3[C@@]4(C)CC[C@@H](O)[C@@H](C)[C@@H]4CC[C@@]32C)/C1=C(\CCC=C(C)C)C(=O)O [Fusidic acid form II from ES 2208110, Fusidic acid]"
–,–,87.7 % of origin,8.7,–,CC(=O)O[C@H]1C[C@@]2(C)[C@@H](C[C@@H](O)[C@H]3[C@@]4(C)CC[C@@H](O)[C@@H](C)[C@@H]4CC[C@@]32C)/C1=C(\CCC=C(C)C)C(=O)O [Fusidic acid hemihydrate]
99.2 % of origin,0.1,–,–,most stable form,"CC(=O)O[C@H]1C[C@@]2(C)[C@@H](C[C@@H](O)[C@H]3[C@@]4(C)CC[C@@H](O)[C@@H](C)[C@@H]4CC[C@@]32C)/C1=C(\CCC=C(C)C)C(=O)O [Fusidic acid of the present invention, Fusidic acid]"
